Data published in patent publication US20240116985A1, “STAPLED PEPTIDES AND METHODS THEREOF” (priority 2020, published 2024).
Converted amounts (≈) assume the structure as drawn. Where two headings read alike, the source gives them in different places.

Tests used:
[1] = biological target: T1, full-length beta-Catenin (Uniprot ID P35222) (Homo sapiens, UniProt P35222); test: Fluorescence polarization IC50 (beta-catenin / 5FAM-TCF4 10-53 competition); format: binding
T1 construct: 10 nM full-length beta-Catenin (Uniprot ID P35222)
T1 sequence (P35222 1-781): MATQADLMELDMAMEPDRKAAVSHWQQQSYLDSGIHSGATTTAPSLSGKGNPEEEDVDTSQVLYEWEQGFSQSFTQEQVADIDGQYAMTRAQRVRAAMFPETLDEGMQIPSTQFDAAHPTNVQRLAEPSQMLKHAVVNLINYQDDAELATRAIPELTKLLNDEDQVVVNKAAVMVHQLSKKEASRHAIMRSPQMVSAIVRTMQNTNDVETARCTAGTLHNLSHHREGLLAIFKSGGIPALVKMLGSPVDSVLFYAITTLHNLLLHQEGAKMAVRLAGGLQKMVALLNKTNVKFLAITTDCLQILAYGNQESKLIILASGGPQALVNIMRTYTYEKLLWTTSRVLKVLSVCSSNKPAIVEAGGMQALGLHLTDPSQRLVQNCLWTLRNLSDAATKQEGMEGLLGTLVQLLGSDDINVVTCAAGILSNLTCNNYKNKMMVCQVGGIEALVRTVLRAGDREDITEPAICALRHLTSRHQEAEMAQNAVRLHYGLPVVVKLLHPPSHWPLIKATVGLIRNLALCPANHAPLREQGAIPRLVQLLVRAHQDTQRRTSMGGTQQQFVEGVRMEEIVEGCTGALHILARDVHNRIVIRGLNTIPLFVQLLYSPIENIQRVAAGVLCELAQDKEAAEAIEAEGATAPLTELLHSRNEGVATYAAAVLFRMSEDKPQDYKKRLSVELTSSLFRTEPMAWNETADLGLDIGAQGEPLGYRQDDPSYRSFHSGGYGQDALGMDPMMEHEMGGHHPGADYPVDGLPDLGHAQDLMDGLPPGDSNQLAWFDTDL

[2] = CHI Log D procedure; format: physicochemical; conditions: for CHI Log D: pH 7.4; for chromatographic logD: pH 7.4, CHI Log D
[3] = Solubility in PBS; format: physicochemical
How it was run: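 Solubility is derived from HPLC peak areas: the ratio of the PBS supernatant peak to a 50 μM DMSO peptide peak, times 50 uM.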

[4] = biological target: T2, beta-catenin/TCF4 engagement (Homo sapiens, UniProt P35222); test: Nano-BRET target engagement assay (B-cat-Halo & TCF4-Luc in HEK293 cells); format: cell-based
T2 construct: expressed in transfected cells; host or cells: HEK293
T2 sequence (P35222 1-781): T1 sequence (P35222 1-781)

[5] = fluorescence polarization, read-out: beta-Catenin FP IC50
[6] = absolute IC50, read-out: NanoBRET Abs IC50

| IC50 [1, 5] [nM] | IC50 ([1]; read-out: FP EC50) [nM] | CHI Log D [2] | Solubility [3] [µM] | IC50 [4, 6] [nM] | IC50 ([1]; read-out: beta-Catenin FP IC50) [nM] | chromatographic logD [2] | Solubility ([3]; Solubility (uM)) [µM] | IC50 ([4]; read-out: NanoBRET Abs IC50) [nM] | inhibition at 10 µM ([4]; HEK293, @ 10 uM, read-out: NanoBRET % inh @ 10 uM) [%] | IC50 ([4]; read-out: NanoBRET IC50) [nM] | IC50 ([4]; Abs IC50, read-out: NanoBRET Abs IC50) [nM] | SMILES |
| --- | --- | --- | --- | --- | --- | --- | --- | --- | --- | --- | --- | --- |
| 33 | 33 | 2.004 | 50 (≈ 91.7 µg/mL) | 28800 | – | – | – | – | – | – | – | CC(=O)N1CCC[C@]12CC=CCCCC1(CCCC=CCCCCCC[C@@](C)(C(=O)N[C@@H](Cc3ccsc3)C(=O)N[C@@H](Cc3csc4ccccc34)C(=O)N[C@@H](CCC(N)=O)C(N)=O)NC(=O)[C@H](CC(N)=O)NC(=O)[C@H](Cc3ccccc3)NC(=O)[C@H](C)NC(=O)[C@H](C)NC(=O)[C@H](CCC(=O)O)NC(=O)[C@H](CC(=O)O)NC1=O)NC(=O)[C@H](C)NC(=O)[C@H](CC(=O)O)NC2=O (stereo partly drawn) [I-519, Ac-PL3-Asp-Ala-B5-Asp-Glu-Ala-Ala-Phe-Asn-S8-3Thi-BztA-Gln-NH2] |
| 36 | 36 | 2.16 | 48 (≈ 88.1 µg/mL) | > 20000 | – | – | – | – | – | – | – | CC[C@@H]1NC(=O)[C@H](CC(=O)O)NC(=O)[C@]2(CC=CCCCC3(CCCC=CCCCCCC[C@@](C)(C(=O)N[C@@H](Cc4ccccc4)C(=O)N[C@@H](Cc4csc5ccccc45)C(=O)N[C@@H](Cc4c[nH]cn4)C(N)=O)NC(=O)[C@H](CC(N)=O)NC(=O)[C@H](Cc4ccccc4)NC(=O)[C@H](C)NC(=O)[C@H](C)NC(=O)[C@H](CC(=O)O)NC(=O)[C@H](CC(=O)O)NC3=O)NC1=O)CCCN2C(C)=O (stereo partly drawn) [I-574, Ac-PL3-Asp-Abu-B5-Asp-Asp-Ala-Ala-Phe-Asn-S8-Phe-BztA-His-NH2] |
| – | – | – | – | – | 33 | 2.38 | 43 (≈ 95.8 µg/mL) | 7800 | – | – | – | CC(=O)N1CCC[C@]12CC=CCCCC1(CCCC=CCCCOC(=O)N3CC[C@@](C(=O)N[C@@H](Cc4ccsc4)C(=O)N[C@@H](Cc4csc5ccccc45)C(=O)N[C@@H](CCC(N)=O)C(=O)N[C@@H](CCCCNC(=O)CCc4cccc5ccccc45)C(N)=O)(C3)NC(=O)[C@H](CC(N)=O)NC(=O)[C@H](Cc3ccccc3)NC(=O)[C@H](C)NC(=O)[C@H](C)NC(=O)[C@H](CC(=O)O)NC(=O)[C@H](CC(=O)O)NC1=O)NC(=O)[C@H](CC(C)(C)C)NC(=O)[C@H](CC(=O)O)NC2=O (stereo partly drawn) [I-903, Ac-PL3-Asp-Npg-B5-Asp-Asp-Ala-Ala-Phe-Asn-PyrS2-3Thi-BztA-Gln-[1NapPr]Lys-NH2] |
| – | – | – | 10 (≈ 19.2 µg/mL) | – | 26 | 2.35 | – | 25800 | – | – | – | CC(=O)N1CCC[C@]12CC=CCCCC1(CCCC=CCCCOC(=O)N3CC[C@@](C(=O)N[C@@H](Cc4ccccc4Cl)C(=O)N[C@@H](Cc4csc5ccccc45)C(=O)N[C@@H](CCC(N)=O)C(N)=O)(C3)NC(=O)[C@H](CO)NC(=O)[C@H](Cc3ccccc3)NC(=O)[C@H](C)NC(=O)[C@H](C)NC(=O)[C@H](CC(N)=O)NC(=O)[C@H](CC(=O)O)NC1=O)NC(=O)[C@H](CC(C)(C)C)NC(=O)[C@H](CC(=O)O)NC2=O (stereo partly drawn) [I-1018, Ac-PL3-Asp-Npg-B5-Asp-Asn-Ala-Ala-Phe-Ser-PyrS2-2C1F-BztA-Gln-NH2] |
| 25 | – | – | 10 (≈ 18.9 µg/mL) | 8900 | – | 2.41 | – | – | – | – | – | CC(=O)N1CCC[C@]12CC=CCCCC1(CCCC=CCCCCCC[C@@](C)(C(=O)N[C@@H](Cc3ccccc3)C(=O)N[C@@H](Cc3csc4ccccc34)C(=O)N[C@@H](Cc3c[nH]cn3)C(N)=O)NC(=O)[C@H](CCC(N)=O)NC(=O)[C@H](Cc3ccccc3)NC(=O)[C@H](C)NC(=O)[C@H](C)NC(=O)[C@H](CCC(=O)O)NC(=O)[C@H](CC(=O)O)NC1=O)NC(=O)[C@H](CC(C)C)NC(=O)[C@H](CC(=O)O)NC2=O (stereo partly drawn) [I-506, Ac-PL3-Asp-Leu-B5-Asp-Glu-Ala-Ala-Phe-Gln-S8-Phe-BztA-His-NH2] |
| – | – | – | – | – | 5 | 2.07 | 36 (≈ 71.1 µg/mL) | 9100 | – | – | – | CC(=O)N1CCC[C@]12CC=CCCCC1(CCCC=CCCCOC(=O)N3CC[C@@](C(=O)N[C@@H](Cc4ccsc4)C(=O)N[C@@H](Cc4csc5ccccc45)C(=O)N[C@@H](CC(N)=O)C(=O)N[C@@H](C)C(N)=O)(C3)NC(=O)[C@H](CC(N)=O)NC(=O)[C@H](Cc3ccccc3)NC(=O)[C@H](C)NC(=O)[C@H](C)NC(=O)[C@H](CC(=O)O)NC(=O)[C@H](CC(=O)O)NC1=O)NC(=O)[C@H](CC(C)(C)C)NC(=O)[C@H](CC(=O)O)NC2=O (stereo partly drawn) [I-821, Ac-PL3-Asp-Npg-B5-Asp-Asp-Ala-Ala-Phe-Asn-PyrS2-3Thi-BztA-Asn-Ala-NH2] |
| 34 | – | – | 50 (≈ 94.5 µg/mL) | 11300 | – | 2.3 | – | – | – | – | – | CC[C@H](C)[C@@H]1NC(=O)[C@H](CC(=O)O)NC(=O)[C@]2(CC=CCCCC3(CCCC=CCCCCCC[C@@](C)(C(=O)N[C@@H](Cc4ccccc4)C(=O)N[C@@H](Cc4csc5ccccc45)C(=O)N[C@@H](CCC(N)=O)C(N)=O)NC(=O)[C@H](CCC(N)=O)NC(=O)[C@H](Cc4cccs4)NC(=O)[C@H](C)NC(=O)[C@H](C)NC(=O)[C@H](CCC(=O)O)NC(=O)[C@H](CC(=O)O)NC3=O)NC1=O)CCCN2C(C)=O (stereo partly drawn) [I-485, Ac-PL3-Asp-Ile-B5-Asp-Glu-Ala-Ala-2Thi-Gln-S8-Phe-BztA-Gln-NH2] |
| – | – | – | – | – | 6 | 2.21 | 38 (≈ 73.5 µg/mL) | 12200 | – | – | – | CC(=O)N1CCC[C@]12CC=CCCCC1(CCCC=CCCCOC(=O)N3CC[C@@](C(=O)N[C@@H](Cc4ccccc4C)C(=O)N[C@@H](Cc4csc5ccccc45)C(=O)N[C@@H](Cc4c[nH]cn4)C(N)=O)(C3)NC(=O)[C@H](CC(N)=O)NC(=O)[C@H](Cc3ccccc3)NC(=O)[C@H](C)NC(=O)[C@H](C)NC(=O)[C@H](CC(=O)O)NC(=O)[C@H](CC(=O)O)NC1=O)NC(=O)[C@H](CC(C)(C)C)NC(=O)[C@H](CC(=O)O)NC2=O (stereo partly drawn) [I-782, Ac-PL3-Asp-Npg-B5-Asp-Asp-Ala-Ala-Phe-Asn-PyrS2-2MeF-BztA-His-NH2] |
| – | – | – | – | – | 12 | 2.15 | 43 (≈ 84 µg/mL) | > 20000 | – | – | – | CC(=O)N1CCC[C@]12CC=CCCCC1(CCCC=CCCCOC(=O)N3CC[C@@](C(=O)N[C@@H](Cc4ccccc4Cl)C(=O)N[C@@H](Cc4csc5ccccc45)C(=O)N[C@@H](CCC(N)=O)C(N)=O)(C3)NC(=O)[C@H]([C@@H](C)O)NC(=O)[C@H](Cc3ccccc3)NC(=O)[C@H](C)NC(=O)[C@H](C)NC(=O)[C@H](CC(=O)O)NC(=O)[C@H](CC(=O)O)NC1=O)NC(=O)[C@H](Cc1ccccc1)NC(=O)[C@H](CC(=O)O)NC2=O (stereo partly drawn) [I-1043, Ac-PL3-Asp-Phe-B5-Asp-Asp-Ala-Ala-Phe-Thr-PyrS2-2C1F-BztA-Gln-NH2] |
| – | – | – | 50 (≈ 96.1 µg/mL) | – | 5 | 2.15 | – | 19800 | 24.5 | 14400 | – | CC(=O)N1CCC[C@]12CC=CCCCC1(CCCC=CCCCOC(=O)N3CC[C@@](C(=O)N[C@@H](Cc4ccccc4)C(=O)N[C@@H](Cc4csc5ccccc45)C(=O)N[C@@H](Cc4c[nH]cn4)C(N)=O)(C3)NC(=O)[C@H](CC(N)=O)NC(=O)[C@H](Cc3ccccc3)NC(=O)[C@H](C)NC(=O)[C@H](C)NC(=O)[C@H](CC(=O)O)NC(=O)[C@H](CC(=O)O)NC1=O)NC(=O)[C@H](CC(C)(C)C)NC(=O)[C@H](CC(=O)O)NC2=O (stereo partly drawn) [I-777, Ac-PL3-Asp-Npg-B5-Asp-Asp-Ala-Ala-Phe-Asn-PyrS2-Phe-BztA-His-NH2] |
| 57 | – | – | 50 (≈ 99 µg/mL) | – | – | 2.76 | – | – | – | – | 11900 | CC(=O)N1CCC[C@]12CC=CCCCC1(CCCC=CCCCCCC[C@@](C)(C(=O)N[C@@H](Cc3ccccc3)C(=O)N[C@@H](Cc3csc4ccccc34)C(=O)N[C@@H](CCC(N)=O)C(N)=O)NC(=O)[C@H](CC(N)=O)NC(=O)[C@H](Cc3ccccc3)NC(=O)[C@H](C)NC(=O)[C@H](C)NC(=O)[C@H](CN(CC(=O)O)CC(F)(F)F)NC(=O)[C@H](CC(=O)O)NC1=O)NC(=O)[C@H](CC(C)(C)C)NC(=O)[C@H](CC(=O)O)NC2=O (stereo partly drawn) [I-703, Ac-PL3-Asp-Npg-B5-Asp-TfeGA-Ala-Ala-Phe-Asn-S8-Phe-BztA-Gln-NH2] |
| – | – | – | 50 (≈ 98.1 µg/mL) | – | 5 | 1.98 | – | 18500 | – | – | – | CC(=O)N1CCC[C@]12CC=CCCCC1(CCCC=CCCCOC(=O)N3CC[C@@](C(=O)N[C@@H](Cc4ccsc4)C(=O)N[C@@H](Cc4csc5ccccc45)C(=O)N[C@@H](CCC(N)=O)C(N)=O)(C3)NC(=O)[C@H](CCCNC(N)=O)NC(=O)[C@H](Cc3ccccc3)NC(=O)[C@H](C)NC(=O)[C@H](C)NC(=O)[C@H](CC(=O)O)NC(=O)[C@H](CC(=O)O)NC1=O)NC(=O)[C@H](CC(C)(C)C)NC(=O)[C@H](CC(=O)O)NC2=O (stereo partly drawn) [I-805, Ac-PL3-Asp-Npg-B5-Asp-Asp-Ala-Ala-Phe-Cit-PyrS2-3Thi-BztA-Gln-NH2] |
